The values that follow come from publication PMC9822066 (Molecules, 2022).

In one test the target is T1, human H3R (Homo sapiens, UniProt Q9Y5N1).
T1 construct: expressed in transfected cells; host or cells: HEK293
The test can be described thus: [3H]Nα-methylhistamine radioligand binding assay in HEK293 cells stably expressing hH3R. As for the experimental part:
Final compounds were tested for their H3R affinity in a radioligand binding assay using [^3H]N^α-methylhistamine as radioligand in HEK293 cells stably expressing hH3R [25]. […] Affinity to hH3R stably expressed in HEK293 cells was evaluated in a radioligand binding assay as described previously. […] The radioactivity was counted in a MicroBeta Trilux counter (PerkinElmer). Data were fitted to a one-site curve-fitting equation with Prism 6 (GraphPad Software, San Diego, CA, USA) and Ki values were calculated from IC50 values (from at least three experiments performed in duplicates) according to the Cheng−Prusoff equation [52].

Test [1] has as its target BuChE from equine serum (eqBuChE) (Equus caballus, UniProt P81908). The test can be described thus: biochemical. The test is classed as biochemical. The conditions noted are these: for IC50: mean ± SEM, triplicate independent experiments.
The target of test [2] is T2, electric eel AChE (eeAChE) (Electrophorus electricus, UniProt O42275).
T2 construct: purchased Sigma–Aldrich (Steinheim, Germany)
T2 sequence (O42275 24-633): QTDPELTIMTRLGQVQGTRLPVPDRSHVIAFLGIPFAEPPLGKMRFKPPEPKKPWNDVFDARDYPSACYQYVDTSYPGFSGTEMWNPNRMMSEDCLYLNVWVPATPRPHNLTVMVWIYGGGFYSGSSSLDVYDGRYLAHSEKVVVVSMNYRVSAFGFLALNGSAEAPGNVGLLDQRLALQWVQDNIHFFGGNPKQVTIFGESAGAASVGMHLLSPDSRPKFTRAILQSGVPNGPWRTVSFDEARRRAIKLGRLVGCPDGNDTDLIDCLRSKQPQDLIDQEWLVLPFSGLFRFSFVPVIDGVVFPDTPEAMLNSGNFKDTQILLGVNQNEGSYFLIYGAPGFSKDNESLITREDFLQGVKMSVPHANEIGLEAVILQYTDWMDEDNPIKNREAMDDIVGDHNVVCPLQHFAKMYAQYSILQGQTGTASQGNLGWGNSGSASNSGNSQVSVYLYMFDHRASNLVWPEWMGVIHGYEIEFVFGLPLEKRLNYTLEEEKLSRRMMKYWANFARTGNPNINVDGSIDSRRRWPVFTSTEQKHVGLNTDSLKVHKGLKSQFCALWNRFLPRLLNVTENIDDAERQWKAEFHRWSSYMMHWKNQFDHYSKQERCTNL
The test can be described thus: biochemical. Conditions: for IC50: mean ± SEM, triplicate independent experiments, read-out: eeAChE IC50; for inhibition at 10 µM: read-out: eeAChE % Inh. at 10 µM.

The next test concerns the target T3, hMAO B (Homo sapiens, UniProt P27338).
T3 sequence (P27338 1-520): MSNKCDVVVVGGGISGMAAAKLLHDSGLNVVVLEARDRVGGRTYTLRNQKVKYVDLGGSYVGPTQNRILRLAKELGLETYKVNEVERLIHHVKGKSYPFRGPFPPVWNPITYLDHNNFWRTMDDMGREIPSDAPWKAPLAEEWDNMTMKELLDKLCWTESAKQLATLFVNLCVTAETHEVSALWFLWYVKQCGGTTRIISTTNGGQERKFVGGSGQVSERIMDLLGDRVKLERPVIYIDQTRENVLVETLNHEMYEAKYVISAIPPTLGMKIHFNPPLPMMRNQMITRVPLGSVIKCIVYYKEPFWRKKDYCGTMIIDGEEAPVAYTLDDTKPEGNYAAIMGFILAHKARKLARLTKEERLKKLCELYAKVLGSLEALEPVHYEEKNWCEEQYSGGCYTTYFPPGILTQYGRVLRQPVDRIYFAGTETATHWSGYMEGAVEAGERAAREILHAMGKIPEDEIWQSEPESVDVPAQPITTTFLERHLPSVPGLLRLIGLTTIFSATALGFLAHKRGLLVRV
Kind of test: Fluorometric MAO assay, hMAO B inhibition. The test is classed as biochemical. The conditions noted are these: mean ± SEM of two independent experiments, read-out: hMAO B %Inh. at 1 µM.

[3] abbreviates: mean value within the 95% CI, three repetitions, read-out: hH3R Ki.

Where a name gives a salt, the structure may show the parent alone. Read-outs that look alike come from different tables or passages of the source.

T1 sequence (Q9Y5N1 whole entry): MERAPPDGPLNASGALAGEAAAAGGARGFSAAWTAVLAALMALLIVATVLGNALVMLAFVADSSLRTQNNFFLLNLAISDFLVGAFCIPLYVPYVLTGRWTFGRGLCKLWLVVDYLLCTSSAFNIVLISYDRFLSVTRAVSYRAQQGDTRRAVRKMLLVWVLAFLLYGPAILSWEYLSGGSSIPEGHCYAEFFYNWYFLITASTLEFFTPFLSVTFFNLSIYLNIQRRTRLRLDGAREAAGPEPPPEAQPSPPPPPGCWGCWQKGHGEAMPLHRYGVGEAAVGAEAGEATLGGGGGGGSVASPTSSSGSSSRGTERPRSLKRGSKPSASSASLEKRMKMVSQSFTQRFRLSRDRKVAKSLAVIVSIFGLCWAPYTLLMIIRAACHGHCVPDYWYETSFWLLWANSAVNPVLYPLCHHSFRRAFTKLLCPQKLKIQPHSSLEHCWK
Sequence of BuChE from equine serum (eqBuChE) (P81908 whole entry): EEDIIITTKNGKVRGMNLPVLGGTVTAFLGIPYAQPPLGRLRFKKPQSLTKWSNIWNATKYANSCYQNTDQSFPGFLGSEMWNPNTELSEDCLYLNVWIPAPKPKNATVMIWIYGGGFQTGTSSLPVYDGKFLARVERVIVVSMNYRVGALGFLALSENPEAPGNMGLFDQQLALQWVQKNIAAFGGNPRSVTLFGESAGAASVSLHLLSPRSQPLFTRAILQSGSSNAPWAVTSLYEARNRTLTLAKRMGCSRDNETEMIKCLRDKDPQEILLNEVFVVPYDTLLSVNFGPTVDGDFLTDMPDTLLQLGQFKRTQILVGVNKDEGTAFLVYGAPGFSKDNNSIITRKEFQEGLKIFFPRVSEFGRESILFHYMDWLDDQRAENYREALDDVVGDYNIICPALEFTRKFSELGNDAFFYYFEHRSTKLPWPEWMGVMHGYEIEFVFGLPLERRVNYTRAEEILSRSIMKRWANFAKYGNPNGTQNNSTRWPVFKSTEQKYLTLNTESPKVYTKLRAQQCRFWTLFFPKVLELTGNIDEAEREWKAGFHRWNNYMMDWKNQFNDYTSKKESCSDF

On to `O=C(c1ccccc1)c1cccc(OCCCCCN2CCCCCC2)c1` [Compound 27, (3-((5-(Azepan-1-yl)pentyl)oxy)phenyl)(phenyl)methanone hydrogen oxalate], for which the Ki on human H3R was determined as 307 nM. For the same compound, the IC50 came to 901 ± 10 nM in test [1] and 3660 ± 92 nM in test [2]. On hMAO B, the inhibition at 1 µM amounted to 14%.
Take `O=C(O)C(=O)O.O=C(c1ccccc1)c1ccccc1OCCCCCCN1CCCCC1` [Compound 7, (2-((6-(Piperidin-1-yl)hexyl)oxy)phenyl)(phenyl)methanone hydrogen oxalate]: the Ki at human H3R was found to be 161 nM. For the same compound, in test [1], the “selectivity eqBuChE versus eeAChE” value is recorded as “selective eqBuChE inhibitors” and the IC50 amounted to 2110 ± 32 nM. For the same compound, the inhibition at 10 µM in test [2] turned out to be 3%. Further, the inhibition at 1 µM at hMAO B came out at 12%.
As for `O=C(c1ccc(Cl)cc1)c1ccc(OCCCCCN2CCCCC2)cc1` [Compound 5, (4-Chlorophenyl) (4-((5-(piperidin-1-yl)pentyl)oxy)phenyl)methanone hydrogen oxalate], the affinity at human H3R corresponds to a Ki of 20 nM. The concentration for half-maximal inhibition (IC50) in test [1] came out at 1680 ± 17 nM; in test [2], 2870 ± 71 nM. The inhibition at 1 µM at hMAO B stood at 18%.
On to `O=C(c1ccccc1)c1ccc(OCCCCCN2CCCCC2)cc1` [Compound 4, Phenyl (4-((5-(piperidin-1-yl)pentyl)oxy)phenyl)methanone hydrogen oxalate], for which, in test [1], half-maximal inhibition (IC50) was put at 2480 ± 40 nM. The inhibition at 10 µM in test [2] was 41%. In addition, at hMAO B, the inhibition at 1 µM is 44%.
Regarding `O=C(O)C(=O)O.O=C(c1ccccc1)c1ccccc1OCCCCCN1CCCCCC1` [Compound 26, (2-((5-(Azepan-1-yl)pentyl)oxy)phenyl)(phenyl)methanone hydrogen oxalate], the Ki at human H3R worked out at 302 nM. In test [1], the “selectivity eqBuChE versus eeAChE” value is given as “selective eqBuChE inhibitors” and the IC50 is 384 ± 8 nM. Also, in test [2], the inhibition at 10 µM came out at 24%. At hMAO B, the inhibition at 1 µM came to 3%.
In the case of `O=C(c1ccc(F)cc1)c1ccc(OCCCCCN2CCCCCC2)cc1` [Compound 30, (4-Fluorophenyl) (4-((5-(azepan-1-yl)pentyl)oxy)phenyl)methanone hydrogen oxalate], at human H3R, the Ki worked out at 13 nM. The IC50 in test [1] was 224 ± 3 nM; in test [2], 1110 ± 3 nM. For the same compound, the inhibition at 1 µM at hMAO B is 30%.
For `O=C(c1ccc(Cl)cc1)c1ccc(OCCCCCCN2CCCCC2)cc1` [Compound 10, (4-Chlorophenyl) (4-((6-(piperidin-1-yl)hexyl)oxy)phenyl)methanone hydrogen oxalate], in that order: 25 nM, 2460 ± 61 nM, 2670 ± 94 nM and 39%.
Regarding `O=C(O)C(=O)O.O=C(c1ccccc1)c1ccccc1OCCCCCCN1CCCCCC1` [Compound 31, (2-((6-(Azepan-1-yl)hexyl)oxy)phenyl)(phenyl)methanone hydrogen oxalate], at human H3R, the inhibitory constant (Ki) amounted to 162 nM. Further, in test [1], the “selectivity eqBuChE versus eeAChE” value was “selective eqBuChE inhibitors” and the IC50 is 317 ± 3 nM. The inhibition at 10 µM in test [2] amounted to 11%. Besides, at hMAO B, the inhibition at 1 µM amounted to 5%.
With `CC1CCCN(CCCCCOc2ccc(C(=O)c3ccc(F)cc3)cc2)C1` (stereo not drawn) [Compound 16, (4-Fluorophenyl) (4-((5-(3-methylpiperidin-1-yl)pentyl)oxy)phenyl)methanone hydrogen oxalate], on human H3R, the affinity corresponds to a Ki of 12 nM. The IC50 in test [1] was 311 ± 6 nM; in test [2] it was 2023 ± 6 nM. Further, the inhibition at 1 µM on hMAO B amounted to 20%.
In the case of `CC1CCCN(CCCCCCOc2ccc(C(=O)c3ccc(F)cc3)cc2)C1` (stereo not drawn) [Compound 21, (4-Fluorophenyl) (4-(6-(3-methylpiperin-1-yl)hexyloxy)phenyl)methanone hydrogen oxalate], the Ki on human H3R (setting [3]) was 75 nM. The IC50 in test [1] is 2560 ± 40 nM; in test [2] it was 2000 ± 46 nM. Besides, at hMAO B, the inhibition at 1 µM was determined as 23%.
At human H3R, `CC1CCCN(CCCCCOc2ccccc2C(=O)c2ccccc2)C1.O=C(O)C(=O)O` (stereo not drawn) [Compound 12, (2-((5-(3-Methylpiperidin-1-yl)pentyl)oxy)phenyl)(phenyl)methanone hydrogen oxalate] returned an inhibitory constant (Ki) of 208 nM. For the same compound, in test [1], the “selectivity eqBuChE versus eeAChE” value is reported as “selective eqBuChE inhibitors” and the half-maximal inhibitory concentration (IC50) was 1610 ± 61 nM. The inhibition at 10 µM in test [2] amounted to 16%. Also, the inhibition at 1 µM at hMAO B worked out at 9%.
`O=C(c1ccc(F)cc1)c1ccc(OCCCCCCN2CCCCCC2)cc1` [Compound 35, (4-((6-(Azepan-1-yl)hexyl)oxy)phenyl)(4-fluorophenyl)methanone hydrogen oxalate] showed a Ki at human H3R of 35 nM. Also, the results for the IC50 in test [1] and in test [2] were 161 ± 4 nM and 1654 ± 4 nM, respectively. Also, the inhibition at 1 µM on hMAO B is 24%.
With `O=C(O)C(=O)O.O=C(c1ccccc1)c1ccccc1OCCCCCN1CCCCC1` [Compound 2, Phenyl (2-((5-(piperidin-1-yl)pentyl)oxy)phenyl)methanone hydrogen oxalate], the affinity at human H3R, expressed as Ki, was 371 nM. Further, in test [1], the “selectivity eqBuChE versus eeAChE” value was “selective eqBuChE inhibitors” and the IC50 came out at 1610 ± 60 nM. Also, the inhibition at 10 µM in test [2] is 22%. Also, the inhibition at 1 µM on hMAO B was found to be 23%.
On to `Clc1ccc(CCCOCCCN2CCCCC2)cc1` [pitolisant, reference compound], for which, in test [2], the inhibition at 10 µM was determined as 3%.
`CC1CCN(CCCCCCOc2ccc(C(=O)c3ccccc3)cc2)CC1` [Compound 25, (4-((6-(4-Methylpiperidin-1-yl)hexyl)oxy)phenyl)(phenyl)methanone hydrogen oxalate] returned a Ki on human H3R of 53 nM. In addition, the values for the IC50 in test [1] and in test [2] were 1560 ± 50 nM and 2690 ± 47 nM, respectively. In addition, at hMAO B, the inhibition at 1 µM came to 22%.
On human H3R, `O=C(c1ccc(F)cc1)c1ccc(OCCCCCCN2CCCCC2)cc1` [Compound 11, (4-Fluorophenyl) (4-((6-(piperidin-1-yl)hexyl)oxy)phenyl)methanone hydrogen oxalate] showed a Ki of 26 nM. Moreover, the IC50 came out at 419 ± 2 nM in test [1] and 3098 ± 9 nM in test [2]. The inhibition at 1 µM on hMAO B is 28%.
As for `CC1CCCN(CCCCCCOc2ccc(C(=O)c3ccc(Cl)cc3)cc2)C1` (stereo not drawn) [Compound 20, (4-Chlorophenyl) (4-((6-(3-methylpiperin-1-yl)hexyl)oxy)phenyl)methanone hydrogen oxalate], on human H3R (setting [3]), the Ki was 44 nM. Moreover, the IC50 worked out at 2520 ± 31 nM in test [1] and 2740 ± 98 nM in test [2]. For the same compound, the inhibition at 1 µM at hMAO B turned out to be 17%.
In turn, `CC1CCN(CCCCCOc2ccc(C(=O)c3ccccc3)cc2)CC1` [Compound 23, (4-((5-(4-Methylpiperidin-1-yl)pentyl)oxy)phenyl)(phenyl)methanone hydrogen oxalate] had a Ki at human H3R of 67 nM. The half-inhibitory concentration (IC50) in test [1] was 1570 ± 35 nM; in test [2] it was 2600 ± 72 nM. Besides, the inhibition at 1 µM on hMAO B is 27%.
Consider `CC1CCCN(CCCCCCOc2ccccc2C(=O)c2ccccc2)C1.O=C(O)C(=O)O` (stereo not drawn) [Compound 17, (2-((6-(3-Methylpiperidin-1-yl)hexyl)oxy)phenyl)(phenyl)methanone hydrogen oxalate], for which, at human H3R, the Ki turned out to be 152 nM. Further, in test [1], the “selectivity eqBuChE versus eeAChE” value was “selective eqBuChE inhibitors” and the IC50 came out at 2500 ± 28 nM. Also, the inhibition at 10 µM in test [2] was found to be 20%. Moreover, the inhibition at 1 µM on hMAO B was 8%.
